Format in all cases: functional
Test [1] concerns Saccharomyces cerevisiae. As to the kind of experiment: Percent inhibitory activity of 15 uM of compound against growth of Saccharomyces cerevisiae transfected with human topoisomerase-1 in medium containing galactose.
Test [2] concerns Saccharomyces cerevisiae. As to the kind of experiment: Percent inhibitory activity of 1.5 uM of compound against growth of Saccharomyces cerevisiae transfected with human topoisomerase-1 in medium containing raffinose.
For test [3], the system named is Saccharomyces cerevisiae. As to the kind of experiment: Percent inhibitory activity of 1.5 uM of compound against growth of Saccharomyces cerevisiae transfected with human topoisomerase-1 in medium containing galactose.
Test [4] concerns Saccharomyces cerevisiae. The experiment in a line: Percent inhibitory activity of 15 uM of compound against growth of Saccharomyces cerevisiae transfected with human topoisomerase-1 in medium containing raffinose.
Test [5] concerns Saccharomyces cerevisiae. As to the kind of experiment: Percent inhibitory activity of 0.75 uM of compound against growth of Saccharomyces cerevisiae transfected with human topoisomerase-1 in medium containing galactose.
The test system of test [6] is Saccharomyces cerevisiae. The experiment in a line: Percent inhibitory activity of 0.75 uM of compound against growth of Saccharomyces cerevisiae transfected with human topoisomerase-1 in medium containing raffinose.
Test [7] relates to Saccharomyces cerevisiae. The experiment in a line: Percent inhibitory activity of 50 uM of compound against growth of Saccharomyces cerevisiae transfected with human topoisomerase-1 in medium containing galactose.
Test [8] deals with Saccharomyces cerevisiae. As to the kind of experiment: Percent inhibitory activity of 100 uM of compound against growth of Saccharomyces cerevisiae transfected with human topoisomerase-1 in medium containing galactose.
For test [9], the system named is Saccharomyces cerevisiae. The experiment in a line: Percent inhibitory activity of 100 uM of compound against growth of Saccharomyces cerevisiae transfected with human topoisomerase-1 in medium containing raffinose.
Test [10] relates to Saccharomyces cerevisiae. The experiment in a line: Percent inhibitory activity of 50 uM of compound against growth of Saccharomyces cerevisiae transfected with human topoisomerase-1 in medium containing raffinose.
Test [11] concerns Saccharomyces cerevisiae. As to the kind of experiment: Percent inhibitory activity of 10 uM of compound against growth of Saccharomyces cerevisiae transfected with human topoisomerase-1 in medium containing galactose.
Test [12] relates to Saccharomyces cerevisiae. The experiment in a line: Percent inhibitory activity of 1 uM of compound against growth of Saccharomyces cerevisiae transfected with human topoisomerase-1 in medium containing raffinose.
Test [13] has as its system Saccharomyces cerevisiae. The experiment in a line: Percent inhibitory activity of 10 uM of compound against growth of Saccharomyces cerevisiae transfected with human topoisomerase-1 in medium containing raffinose.
Test [14] relates to Saccharomyces cerevisiae. As to the kind of experiment: Percent inhibitory activity of 1 uM of compound against growth of Saccharomyces cerevisiae transfected with human topoisomerase-1 in medium containing galactose.
For test [15], the system named is Saccharomyces cerevisiae. The experiment in a line: Percent inhibitory activity of 5 uM of compound against growth of Saccharomyces cerevisiae transfected with human topoisomerase-1 in medium containing raffinose.
The test system of test [16] is Saccharomyces cerevisiae. The experiment in a line: Percent inhibitory activity of 25 uM of compound against growth of Saccharomyces cerevisiae transfected with human topoisomerase-1 in medium containing raffinose.
Test [17] relates to Saccharomyces cerevisiae. The experiment in a line: Percent inhibitory activity of 25 uM of compound against growth of Saccharomyces cerevisiae transfected with human topoisomerase-1 in medium containing galactose.
Test [18] relates to Saccharomyces cerevisiae. As to the kind of experiment: Percent inhibitory activity of 5 uM of compound against growth of Saccharomyces cerevisiae transfected with human topoisomerase-1 in medium containing galactose.
In test [19] the test system is Saccharomyces cerevisiae. As to the kind of experiment: Percent inhibitory activity of 0.5 uM of compound against growth of Saccharomyces cerevisiae transfected with human topoisomerase-1 in medium containing raffinose.
In test [20] the test system is Saccharomyces cerevisiae. The experiment in a line: Percent inhibitory activity of 0.5 uM of compound against growth of Saccharomyces cerevisiae transfected with human topoisomerase-1 in medium containing galactose.

By Inhibition is commonly meant the percentage by which the read-out fell short of the control. Lower therefore signals little suppression. In the case of `CC[C@@]1(O)C(=O)OCc2c1cc1n(c2=O)Cc2cc3ccccc3nc2-1` [CAMPTOTHECIN], the Inhibition in test [1] was found to be 78%; in test [2], 19%; in [3] it was 68%; in test [4], 18%; in test [5] it was 40%; in test [6], 10%.
As to `O=c1c2c(nc3n1Cc1cc4ccccc4nc1-3)CCCC2`, the Inhibition in test [7] came out at 46%; in test [8], 51%; in test [9], 18%; in [10], 3%.
In the case of `Cc1ccc2nc3n(c(=O)c2c1)Cc1cc2ccccc2nc1-3`, the Inhibition turned out to be 49% in test [11], 8% in test [12], 39% in test [13] and 14% in test [14].
As to `COc1cccc2c(=O)n3c(nc12)-c1nc2ccccc2cc1C3` [16-METHOXYLUOTONIN A], the Inhibition in test [15] came out at 35%; in test [16], 47%; in [17], 2%; in [18], 0%.
In the case of `O=c1c2ccc(F)cc2nc2n1Cc1cc3ccccc3nc1-2`, the Inhibition in test [16] amounted to 0%; in test [17], 40%; in test [7], 73%; in test [10], 14%.
Regarding `O=c1c2ccccc2nc2n1Cc1cc3ccccc3nc1-2` [LUOTONIN A], the Inhibition in test [19] is on record as 0%; in [11], 56%; in [12], 0%; in test [13] it was 35%; in test [20], 23%; in [14], 36%.
Turning to `O=c1c2cccc(O)c2nc2n1Cc1cc3ccccc3nc1-2`, the Inhibition is recorded as 9% in test [7], 13% in test [8], 7% in [9] and 0% in test [10].
For `O=c1c2cc(F)c(F)cc2nc2n1Cc1cc3ccccc3nc1-2`, the Inhibition in [11] is 0%; in test [12], 26%; in test [13] it was 53%; in test [14], 0%.

(Values after ChEMBL document CHEMBL1147536, “Synthesis and biochemical properties of E-ring modified luotonin A derivatives” (2004).)
